Counter-ions that a name gives are not always drawn.

For the first test, the target named is AaDOP2 (Aedes aegypti, UniProt H6D5H2). The test can be described thus: AaDOP2 antagonist screen of the LOPAC1280 library (HEK-CRELuc-Aadop2 cells, luminescence). It is filed as cell-based.
Chain of AaDOP2 (H6D5H2 1-476): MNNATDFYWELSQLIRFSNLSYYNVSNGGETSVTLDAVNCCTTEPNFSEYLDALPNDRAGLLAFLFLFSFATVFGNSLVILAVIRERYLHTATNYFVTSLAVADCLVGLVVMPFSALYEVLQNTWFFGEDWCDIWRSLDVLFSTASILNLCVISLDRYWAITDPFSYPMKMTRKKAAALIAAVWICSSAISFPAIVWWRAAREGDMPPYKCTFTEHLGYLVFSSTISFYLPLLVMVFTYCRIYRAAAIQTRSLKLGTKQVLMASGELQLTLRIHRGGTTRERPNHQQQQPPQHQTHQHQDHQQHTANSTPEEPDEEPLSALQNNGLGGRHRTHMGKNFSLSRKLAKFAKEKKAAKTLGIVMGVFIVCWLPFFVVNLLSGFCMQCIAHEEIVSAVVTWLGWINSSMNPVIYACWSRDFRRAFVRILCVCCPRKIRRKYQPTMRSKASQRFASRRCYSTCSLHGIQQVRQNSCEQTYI
Settings: not given
Consider `CC[N+](CC)(CC)CCOc1cccc(OCC[N+](CC)(CC)CC)c1OCC[N+](CC)(CC)CC` [Compound 559, Gallamine triethiodide], for which the “Compound effect (percent receptor signaling in presence of test compound, relative lux units relative to the SCH23390 control)” value is given as 120.

For `Cl.Cl.c1ccc(CCCN2CCN(CCOC(c3ccccc3)c3ccccc3)CC2)cc1` [Compound 560, GBR-12935 dihydrochloride], the “Compound effect (percent receptor signaling in presence of test compound, relative lux units relative to the SCH23390 control)” value is 61.

As for `O=C(O)C1=CCNCC1` [Compound 561, Isoguvacine hydrochloride], the “Compound effect (percent receptor signaling in presence of test compound, relative lux units relative to the SCH23390 control)” value was found to be 71.

As for `O=C(O)C1=CCCNC1` [Compound 562, Guvacine hydrochloride], the “Compound effect (percent receptor signaling in presence of test compound, relative lux units relative to the SCH23390 control)” value is reported as 94.

As to `Br.NCc1cc(O)no1` [Compound 564, Muscimol hydrobromide], the “Compound effect (percent receptor signaling in presence of test compound, relative lux units relative to the SCH23390 control)” value was 130.

Turning to `N=C(N)N/N=C/c1c(Cl)cccc1Cl` [Compound 565, Guanabenz acetate], the “Compound effect (percent receptor signaling in presence of test compound, relative lux units relative to the SCH23390 control)” value was 156.

Take `Cc1cnc(C(=O)NCCc2ccc(S(=O)(=O)NC(=O)NC3CCCCC3)cc2)cn1` [Compound 567, Glipizide]: the “Compound effect (percent receptor signaling in presence of test compound, relative lux units relative to the SCH23390 control)” value is 103.

Take `CC1=NN=C(c2ccc(N)cc2)c2cc3c(cc2C1)OCO3.Cl` [Compound 568, GYKI 52466 hydrochloride]: the “Compound effect (percent receptor signaling in presence of test compound, relative lux units relative to the SCH23390 control)” value is 90.

Regarding `CC1Cc2cc3c(cc2C(c2ccc(N)cc2)=NN1)OCO3` (stereo not drawn) [Compound 569, GYKI 52895], the “Compound effect (percent receptor signaling in presence of test compound, relative lux units relative to the SCH23390 control)” value is given as 71.

As to `COC(=O)N1CCN(C(=O)Cc2ccc(Cl)c(Cl)c2)C(CN2CCCC2)C1.O=C(O)/C=C/C(=O)O` (stereo not drawn) [Compound 570, GR-89696 fumarate], the “Compound effect (percent receptor signaling in presence of test compound, relative lux units relative to the SCH23390 control)” value is 79.

`NCC1(CC(=O)O)CCCCC1` [Compound 571, Gabapentin]: the “Compound effect (percent receptor signaling in presence of test compound, relative lux units relative to the SCH23390 control)” value turned out to be 112.

As to `C[N+](C)(C)CCCCCC[N+](C)(C)C` [Compound 575, Hexamethonium bromide], the “Compound effect (percent receptor signaling in presence of test compound, relative lux units relative to the SCH23390 control)” value is listed as 91.

With `COc1cc(CC(=O)O)ccc1O` [Compound 576, 4-Hydroxy-3-methoxyphenylacetic acid], the “Compound effect (percent receptor signaling in presence of test compound, relative lux units relative to the SCH23390 control)” value is on record as 82.

`NCCS(=O)O` [Compound 578, Hypotaurine]: the “Compound effect (percent receptor signaling in presence of test compound, relative lux units relative to the SCH23390 control)” value was found to be 89.

`NNc1nncc2ccccc12` [Compound 580, Hydralazine hydrochloride]: the “Compound effect (percent receptor signaling in presence of test compound, relative lux units relative to the SCH23390 control)” value is on record as 100.

For `Cl.OCc1c[nH]cn1` [Compound 581, 4-Imidazolemethanol hydrochloride], the “Compound effect (percent receptor signaling in presence of test compound, relative lux units relative to the SCH23390 control)” value was determined as 114.

For the compound `C[N+](C)(C)CCCCCC[N+](C)(C)C.[Cl-].[Cl-]` [Compound 582, Hexamethonium dichloride], the “Compound effect (percent receptor signaling in presence of test compound, relative lux units relative to the SCH23390 control)” value stood at 94.

Turning to `COc1ccc(CCN)cc1O.Cl` [Compound 586, 4-Methoxy-3-hydroxyphenethylamine hydrochloride], the “Compound effect (percent receptor signaling in presence of test compound, relative lux units relative to the SCH23390 control)” value is given as 130.

Take `Nc1c2c(nc3ccccc13)CCCC2O.O=C(O)/C=C\C(=O)O` (stereo not drawn) [Compound 587, Hydroxytacrine maleate]: the “Compound effect (percent receptor signaling in presence of test compound, relative lux units relative to the SCH23390 control)” value turned out to be 86.

Consider `C[C@]12CCC(=O)C=C1CC[C@@H]1[C@@H]2[C@@H](O)C[C@@]2(C)[C@H]1CC[C@]2(O)C(=O)CO` [Compound 588, Hydrocortisone], for which the “Compound effect (percent receptor signaling in presence of test compound, relative lux units relative to the SCH23390 control)” value turned out to be 78.

`[Cl-].[Li+]` [Compound 589, Lithium Chloride]: the “Compound effect (percent receptor signaling in presence of test compound, relative lux units relative to the SCH23390 control)” value is reported as 86.

Take `COC(=O)[C@H](NC(=O)c1cc(-c2ccccc2)nc2ccccc12)c1ccccc1` [Compound 591, SB 218795]: the “Compound effect (percent receptor signaling in presence of test compound, relative lux units relative to the SCH23390 control)” value amounted to 98.

On to `O=c1cc(O)cc(/C=C/c2ccc(O)c(O)c2)o1` [Compound 592, Hispidin], for which the “Compound effect (percent receptor signaling in presence of test compound, relative lux units relative to the SCH23390 control)” value was found to be 81.

Regarding `CCCc1c(-c2ccc(O)cc2)nn(-c2ccc(O)cc2)c1-c1ccc(O)cc1` [Compound 594, 1,3,5-tris(4-hydroxyphenyl)-4-propyl-1H-pyrazole], the “Compound effect (percent receptor signaling in presence of test compound, relative lux units relative to the SCH23390 control)” value turned out to be 73.

`Oc1ccc(Cn2ccnc2S)cc1` [Compound 595, 1-(4-Hydroxybenzyl)imidazole-2-thiol]: the “Compound effect (percent receptor signaling in presence of test compound, relative lux units relative to the SCH23390 control)” value is recorded as 63.

`Cc1nccc2c1[nH]c1ccccc12` [Compound 597, Harmane]: the “Compound effect (percent receptor signaling in presence of test compound, relative lux units relative to the SCH23390 control)” value worked out at 60.

On to `Cl.N[C@@H](Cc1cnc[nH]1)C(=O)O` [Compound 601, L-Histidine hydrochloride], for which the “Compound effect (percent receptor signaling in presence of test compound, relative lux units relative to the SCH23390 control)” value stood at 91.

Staying with this test, now noted: 10 µM compound, 300 nM dopamine, 2 hr; hit = compound effect <20.
Regarding `N[C@H](CCC(=O)NCS(=O)(=O)O)C(=O)O` [Compound 566, gamma-D-Glutamylaminomethylsulfonic acid], the “Compound effect (percent receptor signaling in presence of test compound, relative lux units relative to the SCH23390 control)” value is reported as 109%.

As for `COc1cc2c(CCNC(C)=O)c[nH]c2cc1O` [Compound 574, 6-Hydroxymelatonin], the “Compound effect (percent receptor signaling in presence of test compound, relative lux units relative to the SCH23390 control)” value turned out to be 101%.

As for `C[C@]12CCC(=O)C=C1CC[C@@H]1[C@@H]2[C@@H](O)C[C@@]2(C)[C@H]1CC[C@]2(O)C(=O)COC(=O)CCC(=O)[O-].[Na+]` [Compound 583, Hydrocortisone 21-hemisuccinate sodium], the “Compound effect (percent receptor signaling in presence of test compound, relative lux units relative to the SCH23390 control)” value stood at 136%.

On to `CC(=O)O.NC(=NCCC[C@H](N)C(=O)O)NO` [Compound 598, NG-Hydroxy-L-arginine acetate], for which the “Compound effect (percent receptor signaling in presence of test compound, relative lux units relative to the SCH23390 control)” value came to 94%.

Regarding `CC1=C(/C=C/C(C)=C/C=C/C(C)=C/C(=O)Nc2ccc(O)cc2)C(C)(C)CCC1` [Compound 599, Retinoic acid p-hydroxyanilide], the “Compound effect (percent receptor signaling in presence of test compound, relative lux units relative to the SCH23390 control)” value is 88%.

As to `CCCCC#Cc1nc(N)c2ncn([C@@H]3O[C@H](C(=O)NCC)[C@@H](O)[C@H]3O)c2n1` [Compound 600, HE-NECA], the “Compound effect (percent receptor signaling in presence of test compound, relative lux units relative to the SCH23390 control)” value is on record as 99%.

In the case of `NC(=O)NO` [Compound 604, Hydroxyurea], the “Compound effect (percent receptor signaling in presence of test compound, relative lux units relative to the SCH23390 control)” value was 122%.

As for `COc1cc(C(O)CO)ccc1OS(=O)(=O)[O-].[K+]` (stereo not drawn) [Compound 607, MHPG sulfate potassium], the “Compound effect (percent receptor signaling in presence of test compound, relative lux units relative to the SCH23390 control)” value is given as 131%.

In the case of `O=C(O)Cc1c[nH]c2ccc(O)cc12` [Compound 608, 5-Hydroxyindolacetic acid], the “Compound effect (percent receptor signaling in presence of test compound, relative lux units relative to the SCH23390 control)” value was found to be 85%.

For the origin of these results see PMC3265452 (PLoS Neglected Tropical Diseases, 2012).
